Experimental data from US7964624B1, “Inhibitors of serine proteases” (priority 2005, dated 2011).

Legend:
[1] = biological target: T1, full-length hepatitis C viral protein NS3•4A (Hepatitis C virus genotype 1a, UniProt P27958); experiment: biochemical; design: species or system HCV sub-type strain 1a; settings: Enzyme Assay 2 (HCV NS3 Peptide Cleavage Assay) activity, apparent Ki class
T1 construct: hexa-histidine (N); made in house; host or cells: Sf9 insect cells (baculovirus, pVL1392)

HCV NS3 protease domain = biological target: T2, HCV NS3 protease domain (Hepatitis C virus genotype 1b, UniProt Q9WMX2); experiment: biochemical; settings: Enzyme Assay 1 (HCV NS3 Protease Domain Peptide Cleavage Assay) activity, apparent Ki class
T2 construct: The first 181 amino acids of NS3 (residues 1027-1207 of the viral polyprotein); hexa-histidine (C); made in house; host or cells: E. coli BL21/DE3 pLysS

SMILES | Ki [1] [nM] | Ki (HCV NS3 protease domain) [nM]
CCC[C@H](NC(=O)[C@@H]1C[C@]2(CC(c3cccc(Cl)c3)=NO2)CN1C(=O)[C@@H](NC(=O)[C@@H]1CCC(=O)N1C(C)C)C(C)(C)C)C(=O)C(=O)NC1CC1 [Compound 241] | 100 to 500 | > 500
CCC[C@H](NC(=O)[C@@H]1C[C@]2(CC(c3cccc(Cl)c3)=NO2)CN1C(=O)CCCC(=O)Nc1ccc(C)cc1C)C(=O)C(=O)NC1CC1 [Compound 246] | > 500 | > 500
CCC[C@H](NC(=O)[C@@H]1C[C@]2(CC(c3cccc(Cl)c3)=NO2)CN1C(=O)c1ccc(Cl)cc1Nc1ccc(OC)nc1)C(=O)C(=O)NC1CC1 [Compound 248] | > 500 | > 500
CCC[C@H](NC(=O)[C@@H]1C[C@]2(CC(c3cccc(Cl)c3)=NO2)CN1C(=O)[C@@H](NC(=O)C=C1CCCCC1)C(C)(C)C)C(=O)C(=O)NC1CC1 [Compound 252] | < 100 | 100 to 500
CCC[C@H](NC(=O)[C@@H]1C[C@]2(CC(c3cccc(Cl)c3)=NO2)CN1C(=O)[C@@H](NC(=O)CC1CCCCC1)C(C)(C)C)C(=O)C(=O)N(C)C [Compound 253] | > 500 | > 500
CCC[C@H](NC(=O)[C@@H]1C[C@]2(CC(c3cccc(Cl)c3)=NO2)CN1C(=O)[C@@H](NC(=O)CC1CCCCC1)C(C)(C)C)C(=O)C(=O)N[C@@H](C)c1cccc(OC)c1 [Compound 255] | 100 to 500 | 100 to 500
CCC[C@H](NC(=O)[C@@H]1C[C@]2(CC(c3cccc(Cl)c3)=NO2)CN1C(=O)[C@@H](NC(=O)CC1CCCCC1)C(C)(C)C)C(=O)C(=O)NCC1CC1 [Compound 265] | 100 to 500 | > 500
C#CC[C@H](C(=O)N[C@H](C(=O)N1C[C@@]2(CC(c3cccc(Cl)c3)=NO2)C[C@H]1C(=O)N[C@@H](CCC)C(=O)C(=O)NC1CC1)C(C)(C)C)C1CCCCC1 [Compound 266] | 100 to 500 | 100 to 500
CC(C)(C)[C@H](NC(=O)CC1CCCCC1)C(=O)N1C[C@@]2(CC(c3cccc(Cl)c3)=NO2)C[C@H]1C(=O)NC(CC1CCC1)C(=O)C(=O)NCC(F)(F)F (stereo partly shown) [Compound 268] | > 500 | 100 to 500
C=C[C@@H]1C[C@]1(NC(=O)[C@@H]1C[C@]2(CC(c3cccc(Cl)c3)=NO2)CN1C(=O)[C@@H](NC(=O)O[C@H]1CCOC1)C(C)(C)C)C(=O)O [Compound 269] | > 500 | > 500
CCC[C@H](NC(=O)[C@@H]1C[C@]2(CC(c3cccc(Cl)c3)=NO2)CN1C(=O)[C@@H](NC(=O)[C@@H]1C[C@H]1c1ccccc1)C(C)(C)C)C(=O)C(=O)NC1CC1 [Compound 271] | < 100 | 100 to 500
CCC[C@H](NC(=O)[C@@H]1C[C@]2(CC(c3cccc(Cl)c3)=NO2)CN1C(=O)[C@@H](NC(=O)CC1CCCCC1)C(C)(C)C)C(=O)C(=O)NC(C)C [Compound 275] | 100 to 500 | 100 to 500
CCC[C@H](NC(=O)[C@@H]1C[C@]2(CC(c3cccc(Cl)c3)=NO2)CN1C(=O)[C@@H](NC(=O)CC1CCCCC1)C(C)(C)C)C(=O)C(=O)NC[C@H]1CCCO1 [Compound 277] | 100 to 500 | > 500
CCC[C@H](NC(=O)[C@@H]1C[C@]2(CC(c3cccc(Cl)c3)=NO2)CN1C(=O)[C@@H](CC(=O)NC(C)C)C(C)C)C(=O)C(=O)NC1CC1 [Compound 280] | > 500 | > 500
COc1cc(OC)c(C2=NO[C@]3(C2)C[C@@H](C(=O)NC(CC2CCC2)C(=O)C(=O)NC2CC2)N(C(=O)[C@@H](NC(=O)CC2CCOCC2)C(C)(C)C)C3)cc1Cl (stereo partly shown) [Compound 282] | 100 to 500 | > 500
CCC[C@H](NC(=O)[C@@H]1C[C@]2(CC(c3cccc(Cl)c3)=NO2)CN1C(=O)[C@@H](NC(=O)[C@@H](C)C1CCCCC1)C(C)(C)C)C(=O)C(=O)NC1CC1 [Compound 284] | 100 to 500 | 100 to 500
CCC[C@H](NC(=O)[C@@H]1C[C@]2(CC(c3cccc(Cl)c3)=NO2)CN1C(=O)[C@H](Cc1ccccc1C(F)(F)F)NC(=O)CC1CCCCC1)C(=O)C(=O)NC1CC1 [Compound 289] | 100 to 500 | > 500
CCC[C@H](NC(=O)[C@@H]1C[C@]2(CC(c3cncc(Cl)c3)=NO2)CN1C(=O)[C@@H](NC(=O)CC1CCCCC1)C(C)(C)C)C(=O)C(=O)NC1CC1 [Compound 292] | < 100 | 100 to 500
CCC[C@H](NC(=O)[C@@H]1C[C@]2(CC(c3cccc(Cl)c3)=NO2)CN1C(=O)[C@@H](NC(=O)CC1CCCCC1)C(C)(C)C)C(=O)C(=O)Nc1ccon1 [Compound 293] | > 500 | > 500
CCC[C@H](NC(=O)[C@@H]1C[C@]2(CC(c3cccc(Cl)c3)=NO2)CN1C(=O)[C@@H](NC(=O)CC1CCCCC1)C(C)(C)C)C(=O)C(=O)N[C@H](C)c1ccccc1 [Compound 296] | > 500 | > 500
CCC[C@H](NC(=O)[C@@H]1C[C@]2(CC(c3cccc(Cl)c3)=NO2)CN1C(=O)[C@@H](NC(=O)CC1CCCCC1)C(C)(C)C)C(=O)C(=O)NCc1cccc(-n2cccn2)c1 [Compound 298] | 100 to 500 | 100 to 500

SMILES | Ki [1] [nM] | Ki (HCV NS3 protease domain) [nM]
CCC[C@H](NC(=O)[C@@H]1C[C@]2(CC(c3cccc(Cl)c3)=NO2)CN1C(=O)[C@@H](NC(=O)CC1CCCCC1)C(C)(C)C)C(=O)C(=O)NC(CC)CC [Compound 300] | 100 to 500 | 100 to 500
CCC[C@H](NC(=O)[C@@H]1C[C@]2(CC(c3cccc(Cl)c3)=NO2)CN1C(=O)[C@@H](NC(=O)CC1CCCCC1)C(C)(C)C)C(=O)C(=O)NCCc1c[nH]c2ccc(OC)cc12 [Compound 302] | 100 to 500 | 100 to 500
CCC[C@H](NC(=O)[C@@H]1C[C@]2(CC(c3cccc(Cl)c3)=NO2)CN1C(=O)[C@@H](NC(=O)CC1CCN(C(C)=O)CC1)C(C)(C)C)C(=O)C(=O)NC1CC1 [Compound 304] | < 100 | 100 to 500
CCC[C@H](NC(=O)[C@@H]1C[C@]2(CC(c3cc(Cl)c(OC)cc3OC)=NO2)CN1C(=O)[C@@H](NC(=O)CC1CCCCC1)C(C)(C)C)C(=O)C(=O)NC1CC1 [Compound 307] | < 100 | 100 to 500
CCC[C@H](NC(=O)[C@@H]1C[C@]2(CC(c3cccc(Cl)c3)=NO2)CN1C(=O)CCNS(=O)(=O)c1ccc(NC(C)=O)cc1)C(=O)C(=O)NC1CC1 [Compound 309] | > 500 | > 500
CCC[C@H](NC(=O)[C@@H]1C[C@]2(CC(c3cnc(OC)c(Cl)c3)=NO2)CN1C(=O)[C@@H](NC(=O)CC1CCCCC1)C(C)(C)C)C(=O)C(=O)NC1CC1 [Compound 312] | < 100 | < 100
CCC[C@H](NC(=O)[C@@H]1C[C@]2(CC(c3cc(Cl)c4c(c3)OCCN4C)=NO2)CN1C(=O)[C@@H](NC(=O)CC1CCCCC1)C(C)(C)C)C(=O)C(=O)NC1CC1 [Compound 315] | < 100 | < 100
CC(C)(C)OC(=O)N[C@H]1CCCCC/C=C\[C@@H]2C[C@@]2(C(=O)O)NC(=O)[C@@H]2C[C@]3(CC(C(=O)c4ccccc4)=NO3)CN2C1=O [Compound 320] | > 500 | > 500
CCC[C@H](NC(=O)[C@@H]1C[C@]2(CC(c3cc(Cl)cc(OC)c3OC)=NO2)CN1C(=O)[C@@H](NC(=O)CC1CCCCC1)C(C)(C)C)C(=O)C(=O)NC1CC1 [Compound 321] | < 100 | 100 to 500
CCC[C@H](NC(=O)[C@@H]1C[C@]2(CC(c3cc(Cl)c(OC)cc3OC)=NO2)CN1C(=O)[C@@H](NC(=O)CC1CCOCC1)C(C)(C)C)C(=O)C(=O)NC1CC1 [Compound 326] | 100 to 500 | 100 to 500
CCC[C@H](NC(=O)[C@@H]1C[C@]2(CC(c3cccc(Cl)c3)=NO2)CN1C(=O)c1cccc(S(=O)(=O)N2CCc3ccccc3C2)c1)C(=O)C(=O)NC1CC1 [Compound 328] | > 500 | > 500
CCC[C@H](NC(=O)[C@@H]1C[C@]2(CC(c3cccc(Cl)c3)=NO2)CN1C(=O)[C@H](Cc1ccc(OC(C)C)cc1)NC(C)=O)C(=O)C(=O)NC1CC1 [Compound 332] | 100 to 500 | > 500
CCC[C@H](NC(=O)[C@@H]1C[C@]2(CC(c3cccc(Cl)c3)=NO2)CN1C(=O)[C@H](Cc1csc2ccccc12)NC(=O)CC1CCCCC1)C(=O)C(=O)NC1CC1 [Compound 336] | > 500 | > 500
CCC[C@H](NC(=O)[C@@H]1C[C@]2(CC(c3cccc(Cl)c3)=NO2)CN1C(=O)[C@H](Cc1ccccc1F)NC(=O)CC1CCCCC1)C(=O)C(=O)NC1CC1 [Compound 338] | 100 to 500 | > 500
CCC[C@H](NC(=O)[C@@H]1C[C@]2(CC(c3cccc(Cl)c3)=NO2)CN1C(=O)[C@@H](NC(=O)Cc1cncc(Br)c1)C(C)(C)C)C(=O)C(=O)NC1CC1 [Compound 339] | < 100 | 100 to 500
CCC[C@H](NC(=O)[C@@H]1C[C@]2(CC(c3cccc(Cl)c3)=NO2)CN1C(=O)[C@@H](NC(=O)CC1CCCCC1)C(C)(C)C)C(=O)C(=O)N1CCC[C@@H]1COC [Compound 347] | > 500 | > 500
CCC[C@H](NC(=O)[C@@H]1C[C@]2(CC(c3cccc(Cl)c3)=NO2)CN1C(=O)[C@@H](NC(=O)CC1CCCCC1)C(C)(C)C)C(=O)C(=O)N(C)CCC [Compound 350] | > 500 | > 500
CCC[C@H](NC(=O)[C@@H]1C[C@]2(CC(c3cccc(Cl)c3)=NO2)CN1C(=O)CC(C)(C)C)C(=O)C(=O)NC1CC1 [Compound 351] | > 500 | > 500
CCC[C@H](NC(=O)[C@@H]1C[C@]2(CC(c3cccc(Cl)c3)=NO2)CN1C(=O)[C@@H](NC(=O)CC1CCC(C)CC1)C(C)(C)C)C(=O)C(=O)NC1CC1 (stereo partly shown) [Compound 361] | < 100 | 100 to 500
CCC[C@H](NC(=O)[C@@H]1C[C@]2(CC(c3cc(C)c(OC)c(C)c3)=NO2)CN1C(=O)[C@@H](NC(=O)CC1CCCCC1)C(C)(C)C)C(=O)C(=O)NC1CC1 [Compound 362] | < 100 | 100 to 500
